These compounds were tested against T1, human 5HT2c receptor (VNV Isoform) (Homo sapiens, UniProt P28335, I156V/I160V, form not given) (assay: Calcium mobilization (FLIPR) 5HT2c receptor agonist assay in HEK 293 EBNA cells). Details: HEK 293 EBNA cells expressing human 5HT2c receptor, ligand-induced calcium release, read-out: 5-HT2c EC50 (hVSV).
T1 sequence (P28335 1-458 I156V/N158S/I160V): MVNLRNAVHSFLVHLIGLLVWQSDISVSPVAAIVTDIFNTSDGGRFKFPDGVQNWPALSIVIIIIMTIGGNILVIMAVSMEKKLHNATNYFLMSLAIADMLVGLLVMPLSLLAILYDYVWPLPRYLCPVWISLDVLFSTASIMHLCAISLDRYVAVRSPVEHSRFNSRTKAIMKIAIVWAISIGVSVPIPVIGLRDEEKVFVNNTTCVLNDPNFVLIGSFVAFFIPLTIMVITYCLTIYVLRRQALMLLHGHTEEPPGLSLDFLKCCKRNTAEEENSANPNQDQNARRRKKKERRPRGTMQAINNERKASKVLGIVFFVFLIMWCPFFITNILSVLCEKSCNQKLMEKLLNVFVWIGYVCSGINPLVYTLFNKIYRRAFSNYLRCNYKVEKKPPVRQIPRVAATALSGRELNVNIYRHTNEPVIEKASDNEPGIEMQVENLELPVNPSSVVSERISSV
Format: cell-based
Procedure: The following procedure was utilized to evaluate representative compounds of the present invention as 5HT2c receptor agonists.
5HT was utilized as a positive control. Ligand-induced calcium release and consequent fluorescence was measured on a Fluorometric Imaging Plate Reader (FLIPR, Molecular Device, CA).
All data were analyzed by nonlinear least square curve fitting using Prism 4.0 software. Agonist stimulation of calcium-induced fluorescence in FLIPR was fitted to sigmoidal dose response using equation Y=Bottom+(Top−Bottom)/(1+10 ? ((Log EC50−X))), where X is the logarithm of concentration of compounds and Y is the fluorescent response.

| SMILES | EC50 [nM] |
| --- | --- |
| Cc1c(C(F)(F)F)sc2c1CC1CNCC21 (single isomer, unassigned) [40, Enantiomer 2] | < 100 |
| N#Cc1c(Br)sc2c1C1CNCC1C2 (stereo not drawn) [Example 11, 2-Bromo-3b,4,5,6,6a,7-hexahydro-1-thia-5-aza-cyclopenta[α]pentalene-3-carbonitrile] | < 10000 |
| N#Cc1c(Cl)sc2c1C1CNCC1C2 (stereo not drawn) [Example 10, 2-Chloro-3b,4,5,6,6a,7-hexahydro-1-thia-5-aza-cyclopenta[α]pentalene-3-carbonitrile] | < 10000 |
| Brc1csc2c1CC1CNCC21 (single isomer, unassigned) [37, Enantiomer 1] | < 1000 |
| Cc1c(Br)sc2c1C1CNCC1CC2 (single isomer, unassigned) [46, Enantiomer 2] | < 1000 |
| Brc1sc2c(c1Br)CC1CNCC21 (stereo not drawn) [Example 19, 5,6-Dibromo-1,2,3,3a,7,7a-hexahydro-4-thia-2-aza-cyclopenta[α]pentalene] | < 1000 |
| N#Cc1c(Cl)sc2c1CC1CNCC21 (stereo not drawn) [Example 12, 5-Chloro-1,2,3,3a,7,7a-hexahydro-4-thia-2-aza-cyclopenta[α]pentalene-6-carbonitrile] | < 100 |
| Cc1sc2c(c1Br)C(C)C1CNCC21 (single isomer, unassigned) [27, Enantiomer 2] | < 100 |
| Brc1cc2c(s1)C1CCNCC1C2 (stereo not drawn) [Example 31, 2-Bromo-4,5,6,7,7a,8-hexahydro-3bH-3-thia-6-aza-cyclopenta[α]indene] | < 1000 |
| c1ccc2c3c(sc2c1)C1CNCC1C3 (single isomer, unassigned) [45, Enantiomer 2] | < 1000 |
| CC1c2sc(Cl)cc2C2CNCC12 (stereo not drawn) [Example 24, 2-Chloro-7-methyl-3b,4,5,6,6a,7-hexahydro-1-thia-5-aza-cyclopenta[α]pentalene] | < 1000 |
| Cc1c(Cl)sc2c1CC1CNCC21 (stereo not drawn) [Example 17, 5-Chloro-6-methyl-1,2,3,3a,7,7a-hexahydro-4-thia-2-aza-cyclopenta[α]pentalene] | < 100 |
| CCOC(=O)c1csc2c1CC1CNCC21 (stereo not drawn) [Example 3, 1,2,3,3a,7,7a-Hexahydro-4-thia-2-aza-cyclopenta[α]pentalene-6-carboxylic acid ethyl ester] | < 100 |
| Cc1c(Cl)sc2c1C(C)C1CNCC21 (single isomer, unassigned) [26, Enantiomer 2] | < 100 |
| CCOC(=O)c1c(Cl)sc2c1CC1CNCC21 (stereo not drawn) [Example 4, 5-Chloro-1,2,3,3a,7,7a-hexahydro-4-thia-2-aza-cyclopenta[α]pentalene-6-carboxylic acid ethyl ester] | < 100 |
| Cc1sc2c(c1Br)C(C)C1CNCC21 (single isomer, unassigned) [27, Enantiomer 1] | < 1000 |
| Brc1sc2c(c1Br)C1CNCC1C2 (stereo not drawn) [Example 22, 2,3-Dibromo-3b,4,5,6,6a,7-hexahydro-1-thia-5-aza-cyclopenta[α]pentalene] | < 100 |
| Cc1ccc(C(=O)c2c(N)sc3c2CC2CNCC32)cc1 (stereo not drawn) [Example 6, (5-Amino-1,2,3,3a,7,7a-hexahydro-4-thia-2-aza-cyclopenta[α]-pentalen-6-yl)-p-tolyl-methanone] | < 1000 |
| CC1c2cc(Br)sc2C2CNCC12 (single isomer, unassigned) [36, Enantiomer 1] | < 1000 |
| CCOC(=O)c1c(N)sc2c1CC1CNCC21 (stereo not drawn) [Example 1, 5-Amino-1,2,3,3a,7,7a-hexahydro-4-thia-2-aza-cyclopenta[α]pentalene-6-carboxylic acid ethyl ester] | < 100 |
| Brc1cc2c(s1)CC1CNCCC21 (single isomer, unassigned) [28, Enantiomer 1] | < 10000 |
| CC(C)(C)C(=O)c1sc2c(c1Br)CC1CNCC21 (single isomer, unassigned) [43, Enantiomer 2] | < 1000 |

| SMILES | EC50 [nM] |
| --- | --- |
| Nc1sc2c(c1C(=O)c1cccc(C(F)(F)F)c1)CC1CNCC21 (stereo not drawn) [Example 5, (5-Amino-1,2,3,3a,7,7a-hexahydro-4-thia-2-aza cyclopenta[α]-pentalen-6-yl)-(3-trifluoromethyl-phenyl)-methanone] | < 10000 |
| FC(F)(F)c1csc2c1C1CNCC1C2 (stereo not drawn) [Example 23, 3-Trifluoromethyl-3b,4,5,6,6a,7-hexahydro-1-thia-5-aza-cyclopenta[α]pentalene] | < 1000 |
| CC1c2sccc2C2CNCC12 (single isomer, unassigned) [34, Enantiomer 1] | < 10000 |
| COC(=O)c1cc2c(s1)C1CNCC1C2 (stereo not drawn) [Example 8, 1,2,3,3a,7,7a-Hexahydro-4-thia-2-aza-cyclopenta[α]pentalene-5-carboxylic acid methyl ester] | < 10000 |
| Cc1sc2c(c1Cl)CC1CNCC21 (stereo not drawn) [Example 15, 6-Chloro-5-methyl-1,2,3,3a,7,7a-hexahydro-4-thia-2-aza-cyclopenta[α]pentalene] | < 100 |
| Brc1cc2c(s1)CC1CNCC21 (stereo not drawn) [Example 21, 2-Bromo-3b,4,5,6,6a,7-hexahydro-1-thia-5-aza-cyclopenta[α]pentalene] | < 100 |
| Nc1sc2c(c1C(=O)c1ccc(Cl)cc1)CC1CNCC21 (stereo not drawn) [Example 7, (5-Amino-1,2,3,3a,7,7a-hexahydro-4-thia-2-aza-cyclopenta[α]-pentalen-6-yl)-(4-chloro-phenyl)-methanone] | < 10000 |
| COc1csc2c1CC1CNCC21 (stereo not drawn) [Example 20, 6-Methoxy-1,2,3,3a,7,7a-hexahydro-4-thia-2-aza-cyclopenta[α]pentalene] | < 1000 |
| COc1c(C(F)(F)F)sc2c1CC1CNCC21 (single isomer, unassigned) [41, Enantiomer 2] | < 100 |
| CCOC(=O)c1c(Br)sc2c1CC1CNCC21 (stereo not drawn) [Example 2, 5-Bromo-1,2,3,3a,7,7a-hexahydro-4-thia-2-aza-cyclopenta[α]pentalene-6-carboxylic acid ethyl ester] | < 100 |
| CC1c2cc(Br)sc2C2CNCC12 (single isomer, unassigned) [36, Enantiomer 2] | < 10000 |
| c1cc2c(s1)C1CNCC1C2 (stereo not drawn) [Example 9, 1,2,3,3a,7,7a-Hexahydro-4-thia-2-aza-cyclopenta[α]pentalene] | > 10000 |
| Cc1sc2c(c1Br)C1CNCCC1C2 (single isomer, unassigned) [33, Enantiomer 2] | < 10000 |
| CC1c2sc(I)cc2C2CNCC12 (stereo not drawn) [Example 25, 2-Iodo-7-methyl-3b,4,5,6,6a,7-hexahydro-1-thia-5-aza-cyclopenta[α]pentalene] | < 1000 |
| Brc1cc2c(s1)C1CNCC1C2 (single isomer, unassigned) [38, Enantiomer 1] | < 100 |
| Cc1sc2c(c1Br)C1CNCCC1C2 (single isomer, unassigned) [33, Enantiomer 1] | < 1000 |
| Brc1cc2c(s1)CC1CCNCC21 (single isomer, unassigned) [29, Enantiomer 2] | < 10000 |
| N#Cc1csc2c1CC1CNCC21 (stereo not drawn) [Example 14, 1,2,3,3a,7,7a-Hexahydro-4-thia-2-aza-cyclopenta[α]pentalene-6-carbonitrile] | < 1000 |
| N#Cc1c(Br)sc2c1CC1CNCC21 (centres unmarked) [Example 13, 5-Bromo-1,2,3,3a,7,7a-hexahydro-4-thia-2-aza-cyclopenta[ ]pentalene-6-carbonitrile] | < 100 |
| COc1c(Cl)sc2c1CC1CNCC21 (single isomer, unassigned) [42, Enantiomer 2] | < 10000 |
| FC(F)(F)c1sc2c(c1Br)CC1CNCC21 (single isomer, unassigned) [39, Enantiomer 2] | < 100 |

Same assay, conditions: read-out: 5-HT2c EC50 (hVSV), HEK 293 EBNA cells expressing human 5HT2c receptor, ligand-induced calcium release

| SMILES | EC50 [nM] |
| --- | --- |
| Brc1cc2c(s1)C1CNCCC1C2 (single isomer, unassigned) [30, Enantiomer 2] | > 10000 |
